Assay results as given in US20090048260A1, “Use of pyrrolopyrazine derivatives for the production of medicaments for the treatment of mucoviscidosis and diseases related to protein addressing errors in cells” (priority 2004, published 2009).
Several values for one entry are separate records, joined by “and”; a condition that tells them apart may be missing. Identical values can stand only once.

Assays:
delF508-CFTR [1] = biological target: T1, delF508-CFTR (Homo sapiens, UniProt P13569, DEL508-508); experiment: iodide efflux, targeting (retargeting) of delF508-CFTR in CF15 cells; type: cell-based; settings: for effect of known CFTR inhibitors on delF508 transport after treatment with aloisine A: CF15 cells treated with aloisine A
T1 construct: endogenous in cells; host or cells: CF15 (homozygous delF508)
T1 sequence (P13569 with tags, fused parts or gaps DEL508-508): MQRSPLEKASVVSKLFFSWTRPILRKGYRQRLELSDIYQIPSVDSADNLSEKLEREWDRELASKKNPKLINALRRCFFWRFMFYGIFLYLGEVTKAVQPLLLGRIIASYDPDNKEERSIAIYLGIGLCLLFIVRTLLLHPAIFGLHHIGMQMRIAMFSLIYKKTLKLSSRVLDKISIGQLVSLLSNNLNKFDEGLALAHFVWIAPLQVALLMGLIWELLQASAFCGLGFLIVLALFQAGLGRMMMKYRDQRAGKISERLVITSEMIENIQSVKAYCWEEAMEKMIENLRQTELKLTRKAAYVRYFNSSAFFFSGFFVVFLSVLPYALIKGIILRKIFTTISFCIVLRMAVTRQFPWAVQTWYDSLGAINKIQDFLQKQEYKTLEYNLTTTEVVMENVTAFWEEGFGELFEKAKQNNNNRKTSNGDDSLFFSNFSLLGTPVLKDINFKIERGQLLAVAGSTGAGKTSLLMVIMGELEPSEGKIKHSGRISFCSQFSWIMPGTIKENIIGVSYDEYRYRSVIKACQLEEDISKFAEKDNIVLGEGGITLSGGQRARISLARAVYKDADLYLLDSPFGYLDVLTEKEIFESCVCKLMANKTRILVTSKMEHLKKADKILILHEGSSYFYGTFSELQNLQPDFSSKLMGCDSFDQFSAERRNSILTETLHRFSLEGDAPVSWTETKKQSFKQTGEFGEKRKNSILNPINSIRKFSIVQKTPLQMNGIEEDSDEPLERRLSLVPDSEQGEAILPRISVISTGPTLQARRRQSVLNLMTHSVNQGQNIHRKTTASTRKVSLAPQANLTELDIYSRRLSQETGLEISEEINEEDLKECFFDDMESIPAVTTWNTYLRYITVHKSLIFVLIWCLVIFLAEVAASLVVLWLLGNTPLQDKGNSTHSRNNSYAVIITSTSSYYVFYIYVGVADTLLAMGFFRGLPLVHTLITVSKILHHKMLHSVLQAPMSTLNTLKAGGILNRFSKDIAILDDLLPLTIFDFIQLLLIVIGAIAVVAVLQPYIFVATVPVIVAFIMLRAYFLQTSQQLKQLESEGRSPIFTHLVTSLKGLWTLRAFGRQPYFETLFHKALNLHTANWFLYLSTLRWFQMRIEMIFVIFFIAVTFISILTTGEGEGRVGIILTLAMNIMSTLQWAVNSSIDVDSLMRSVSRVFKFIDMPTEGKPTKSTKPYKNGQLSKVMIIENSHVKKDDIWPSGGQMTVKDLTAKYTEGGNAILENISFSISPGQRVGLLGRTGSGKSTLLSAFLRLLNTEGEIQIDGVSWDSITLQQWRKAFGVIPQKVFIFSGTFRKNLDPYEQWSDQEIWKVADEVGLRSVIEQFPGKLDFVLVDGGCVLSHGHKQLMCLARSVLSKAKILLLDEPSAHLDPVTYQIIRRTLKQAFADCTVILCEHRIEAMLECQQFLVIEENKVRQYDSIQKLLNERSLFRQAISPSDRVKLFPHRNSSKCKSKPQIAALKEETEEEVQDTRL
Experimental: (§1) CF15 cells: CF15 cells are human epithelial cells of nasal origin which express the Δ508-CFTR gene.
Next, the quantity of radiotracer which leaves the cell is counted after the addition of various pharmacological agents.
The cells are cultured on 24-well plates in a suitable medium. […] The iodide equilibrates on either side of the cell membrane. A robot (MultiPROBE, Packard) carries out the following steps: the loading medium is rinsed with efflux medium in order to remove the extracellular radioactivity. The supernatant is collected every minute in hemolysis tubes and the medium is replaced with an equivalent volume (500 μl). The samples collected for the first 3 minutes are not supplemented with drug, they make it possible to obtain a stable baseline, characterizing the passive outflow of the I ions. The next 7 samples are obtained in the presence of the molecule to be tested. At the end of the experiment, the cells are lyzed by adding 500 μl of NaOH (0.1 N)/0.1% SDS (30 min), thus, the radioactivity which remained inside the cell may be determined. The radioactivity present in the hemolysis tubes is counted as counts per minute (cpm) using a gamma counter (Cobra II, Packard). The results in cpm are expressed in the form of rate of radioactive iodide outflow (R) according to the following formula: […]
This iodide flow is represented in the form of a curve. In order to quantify the outflow of iodide due to the administration of the molecule tested, the following relative flow is calculated which makes it possible to dispense with the basic flow: relative rate (min^−1)=Rpeak−Rbasal. […] The results are presented in the form of a mean+/−SEM. The student's statistical test is used to compare the effect of the drugs to the controls (the values corresponding to P<0.01 are considered as statistically significant).
The study of the targeting of the delF508-CFTR protein was carried out by combining pharmacological and cell imaging approaches, and biochemical and electrophysiological tests on […] human epithelial cells CF15 homozygous for the delF508 deletion.
For each experiment, the addition of a cocktail (10 μM forskolin+30 μM genistein) allows the activation of CFTR when it is attached to the membrane. Thus, an iodide efflux can be observed if the targeting of delF508 has been restored.

G551D-CFTR = biological target: T2, G551D-CFTR (Homo sapiens, UniProt P13569, G551D); experiment: iodide efflux, activation of G551D-CFTR in CHO cells; type: cell-based; settings: CHO cell
T2 construct: expressed in transfected cells; host or cells: CHO cells
T2 sequence (P13569 whole entry G551D): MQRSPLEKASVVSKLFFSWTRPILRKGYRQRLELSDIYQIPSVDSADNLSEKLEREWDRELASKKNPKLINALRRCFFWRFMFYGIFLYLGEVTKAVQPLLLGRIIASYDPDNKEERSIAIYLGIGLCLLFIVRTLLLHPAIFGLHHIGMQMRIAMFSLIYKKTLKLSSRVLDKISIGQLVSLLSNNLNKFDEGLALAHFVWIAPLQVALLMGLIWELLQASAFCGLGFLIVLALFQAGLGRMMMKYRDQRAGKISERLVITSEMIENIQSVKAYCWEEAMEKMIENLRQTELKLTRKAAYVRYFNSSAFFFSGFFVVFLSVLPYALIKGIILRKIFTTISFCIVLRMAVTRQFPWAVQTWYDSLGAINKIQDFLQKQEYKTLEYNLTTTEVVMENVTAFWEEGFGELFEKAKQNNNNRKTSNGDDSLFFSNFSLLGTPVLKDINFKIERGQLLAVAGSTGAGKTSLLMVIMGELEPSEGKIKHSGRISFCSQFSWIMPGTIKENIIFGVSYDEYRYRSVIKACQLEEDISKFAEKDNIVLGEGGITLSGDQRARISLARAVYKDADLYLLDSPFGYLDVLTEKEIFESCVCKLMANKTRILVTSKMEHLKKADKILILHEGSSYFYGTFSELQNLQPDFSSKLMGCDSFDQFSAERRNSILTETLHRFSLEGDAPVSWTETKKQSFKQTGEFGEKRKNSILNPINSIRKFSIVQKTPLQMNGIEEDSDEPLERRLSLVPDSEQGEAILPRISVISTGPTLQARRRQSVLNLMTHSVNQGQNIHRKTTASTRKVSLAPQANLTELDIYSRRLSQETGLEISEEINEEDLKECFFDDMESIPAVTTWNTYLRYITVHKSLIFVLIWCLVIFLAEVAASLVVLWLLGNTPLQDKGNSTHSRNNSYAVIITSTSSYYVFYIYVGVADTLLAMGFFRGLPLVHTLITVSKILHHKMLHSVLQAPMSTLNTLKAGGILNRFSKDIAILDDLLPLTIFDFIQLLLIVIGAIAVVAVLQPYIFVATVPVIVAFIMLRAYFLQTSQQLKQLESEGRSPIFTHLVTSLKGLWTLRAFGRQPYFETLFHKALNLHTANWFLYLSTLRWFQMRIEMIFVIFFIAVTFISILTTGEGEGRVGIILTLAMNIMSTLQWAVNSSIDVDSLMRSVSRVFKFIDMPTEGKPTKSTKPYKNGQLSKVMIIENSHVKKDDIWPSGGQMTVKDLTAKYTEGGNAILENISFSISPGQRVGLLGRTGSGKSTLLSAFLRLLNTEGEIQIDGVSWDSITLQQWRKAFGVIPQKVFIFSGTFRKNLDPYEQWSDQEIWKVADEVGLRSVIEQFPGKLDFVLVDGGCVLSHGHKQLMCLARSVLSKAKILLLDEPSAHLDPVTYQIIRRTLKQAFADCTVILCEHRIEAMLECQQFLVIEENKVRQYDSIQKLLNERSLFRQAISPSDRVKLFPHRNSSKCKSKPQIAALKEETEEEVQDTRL
Experimental: (§2) the measurements of chloride ion transport in the cells was carried out with the aid of the radioactive iodide efflux technique (Becq et al., 1999; Dormer et al., 2001). The tracer (^125I) is incorporated into the intracellular medium. Next, the quantity of radiotracer which leaves the cell is counted after the addition of various pharmacological agents. Iodide is used as a tracer for the transport of chloride ions. ^125I further has the advantage of having a short life compared with that of other markers such as ^35Cl (respective ½ life: […] and 300000 years).
(§3) The cells are cultured on 24-well plates in a suitable medium. 2 rinses with efflux medium (NaCl: 136.6 mM, KCl: 5.4 mM, KH2PO4: 0.3 mM, NaH2PO4: 0.3 mM, NaHCO3: 4.2 mM, CaCl2: 1.3 mM, MgCl2: 0.5 mm, MgSO4: 0.4 mM, HEPES: 10 mM, D-glucose: 5.6 mM) are carried out in order to remove the dead cells which release the radioactivity anarchically. […] A robot (MultiPROBE, Packard) carries out the following steps: the loading medium is rinsed with efflux medium in order to remove the extracellular radioactivity. […] At the end of the experiment, the cells are lyzed by adding 500 μl of NaOH (0.1 N)/0.1% SDS (30 min), thus, the radioactivity which remained inside the cell may be determined. The radioactivity present in the hemolysis tubes is counted as counts per minute (cpm) using a gamma counter (Cobra II, Packard). […]

delF508-CFTR [2] = biological target: T1, delF508-CFTR; experiment: immunolocalization of delF508-CFTR in CF15 cells (confocal imaging); type: cell-based; settings: 100 μM aloisine A
Experimental: Immunolabeling makes it possible to reveal the cellular location of the CFTR protein using a primary anti-CFTR antibody (Ab), and then a secondary antibody anti-primary antibody labeled with the fluorophore Cy3.
The cells are inoculated beforehand on cover glass in appropriate culture medium. 3 washes with TBS (NaCl: 157 mM, Tris base: […], pH 7.4) of 5 min each are performed. The cells are then fixed by addition of TBS-paraformaldehyde (3%) for 20 min. After 3 washes with TBS (5 min), the cells are incubated with TBS-triton 0.1% (10 min) which allows the formation of holes in the cell membrane and then 3 washes with TBS are again carried out before bringing the cells into contact with TBS-BSA 0.5%-saponin 0.05% for 1 h. The cells are then incubated with the anti-C-terminal CFTR primary antibody (2 μg/ml) for 1 h. 3 washes with TBS-BSA-saponin of 5 min each are carried out before the incubation with the secondary antibody GAM-cy3 (1/400) for 1 h. Following 2 washes with TBS of 5 min, the nuclei are labeled by incubating with Topro3 (1/1000) for 5 min. Next, the cover glass may be mounted on the slide after 3 final washes with TBS of 5 min. […] In order to distinguish between the Cy3 and Topro3 labeling, the fluorescence color of Topro3 was changed to blue (color of the nuclei).

[3] = in vivo
CHO-WT cells = experiment: MTT cytotoxicity test; type: cell-based, Chinese Hamster; settings: various concentrations
Experimental: The test of toxicity to MTT is a […] test which is based on capacity of mitochondrial dehydrogenases to metabolize MTT (yellow tetrazolium salt) to formazan (purple). The absorbance, which is proportional to the concentration of dye converted, can then be measured by spectrophotometry. […] 3 controls are prepared: 100% living cells: cells without agent; 0% living cells: cells left in the open air; blank: medium without cells. […] Next, they are incubated for 4 h with 100 μl of RPMI solution supplemented with MTT (0.5 mg/ml). The medium is then removed, the addition of 100 μl of DMSO makes it possible to solubilize the dye converted (formazan). The absorbance is measured by spectrophotometry at 570 nm (purple); 630 nm (background). In order to eliminate the background, the following calculation is carried out: DOreal=DO570nm−DO630nm. Next, the results are normalized with respect to the controls (100% and 0% of living cells) and are presented in the form of mean+/−SEM.

wild-type CFTR (CFTR-WT) = biological target: T3, wild-type CFTR (CFTR-WT) (Homo sapiens, UniProt P13569); experiment: iodide efflux, activation of the CFTR chloride channel in CHO cells; type: cell-based
T3 construct: expressed in transfected cells; host or cells: CHO (Chinese Hamster Ovary) cells
T3 sequence (P13569 whole entry): as the sequence (P13569 whole entry G551D) above, with D551G counted along it
Experimental: CHO-WT cells: The CHO (Chinese Hamster Ovary) cells are fibroblasts which have been transfected with the wild-type CFTR (CFTR-WT) gene. These cells will therefore overexpress the CFTR protein.
the measurements of chloride ion transport in the cells was carried out with the aid of the radioactive iodide efflux technique (Becq et al., 1999; Dormer et al., 2001). The tracer (^125I) is incorporated into the intracellular medium. Next, the quantity of radiotracer which leaves the cell is counted after the addition of various pharmacological agents. […]
as §3

delF508-CFTR [4] = biological target: T1, delF508-CFTR; experiment: iodide efflux, activation of delF508 in CF15 cells after incubation at 27° C.; type: cell-based
Experimental: as §1, §2
as §3, with “determined.” for “determined. The radioactivity present in the hemolysis tubes is counted as counts per minute (cpm) using a gamma counter (Cobra II, Packard).”

Question: With C[C@H]1CCC/C=C/[C@@H]2C[C@H](O)C[C@H]2[C@H](O)/C=C/C(=O)O1 [Brefeldin A] as the molecule, how does the “competition with aloisine A: effect on the aloisine A-induced retargeting of delF508-CFTR” value (delF508-CFTR [1]; iodide efflux, CF15 cells) read?
Answer: inhibition

Question: Which “effect of known CFTR inhibitors on delF508 transport after treatment with aloisine A” value (“effect of known CFTR inhibitors” for short) (delF508-CFTR [1]) does the source give for O=S(=O)(O)c1cc(N=C=S)ccc1C=Cc1ccc(N=C=S)cc1S(=O)(=O)O [DIDS] here?
Answer: insensitive

Question: Which “effect of known CFTR inhibitors” value (delF508-CFTR [1]) does the source give for O=C(O)c1ccccc1Nc1ccccc1 [DPC] here?
Answer: blocked

Question: With CCCCc1c(-c2ccc(O)cc2)[nH]c2nccnc12 [aloisine A] as the molecule, how does the EC50 (G551D-CFTR) read?
Answer: 1.5 nM

Question: What about the “localization of the delF508 protein” value (delF508-CFTR [2]) of the same molecule?
Answer: redirect the delF508 protein to the membrane

Question: And the toxicity on animals [3]?
Answer: very low toxicity

Question: What about the “cell viability (MTT)” value (CHO-WT cells; 2 h incubation) of the same molecule?
Answer: viable for all the concentrations

Question: What about the “cell viability (MTT)” value (CHO-WT cells; 24 h incubation) of the same molecule?
Answer: viable for all the concentrations

Question: What about the EC50 (wild-type CFTR (CFTR-WT)) of the same molecule?
Answer: 152 nM

Question: And the EC50 (delF508-CFTR [4])?
Answer: 110 nM

Question: What about the “delF508-CFTR activity after treatment” value (delF508-CFTR [1]; CF15 cells, 100 μM, 2 h treatment, 37° C.) of the same molecule?
Answer: restored

Question: What about the EC50 (delF508-CFTR [1]; CF15 cells, 2 h treatment, then 10 μM forskolin+30 μM genistein, read-out: EC50 of retargeting of delF508-CFTR (restored iodide efflux)) of the same molecule?
Answer: 50000 nM and 49000 nM

Question: For COc1ccc(Cl)cc1C(=O)NCCc1ccc(S(=O)(=O)NC(=O)NC2CCCCC2)cc1 [glibenclamide], which “effect of known CFTR inhibitors” value (delF508-CFTR [1]) is on record?
Answer: blocked
